Results: PubChem BioAssay (NCI)
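Each compound was tested at five concentrations against cells in 96-well plates for 48 hours. The concentration for full growth arrest is given as TGI.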

What was measured:
Test in all cases: inhibition of tumour cell growth, NCI panel, 48 h
SN12C renal = tested on: SN12C renal
EKVX NSCLC = tested on: EKVX NSCLC
IGROV1 ovarian = tested on: IGROV1 ovarian
NCI-H23 lung = tested on: NCI-H23 lung
ACHN renal = tested on: ACHN renal
DU-145 prostate = tested on: DU-145 prostate
SF-268 CNS = tested on: SF-268 CNS
OVCAR-4 ovarian = tested on: OVCAR-4 ovarian
OVCAR-5 ovarian = tested on: OVCAR-5 ovarian
SK-MEL-28 melanoma = tested on: SK-MEL-28 melanoma
SK-MEL-5 melanoma = tested on: SK-MEL-5 melanoma
A498 renal = tested on: A498 renal
RXF 393 renal = tested on: RXF 393 renal
SF-539 CNS = tested on: SF-539 CNS
HT29 colon = tested on: HT29 colon
MDA-N = tested on: MDA-N
A549 NSCLC = tested on: A549 NSCLC
OVCAR-3 ovarian = tested on: OVCAR-3 ovarian
U251 CNS = tested on: U251 CNS
PC-3 prostate = tested on: PC-3 prostate
OVCAR-8 ovarian = tested on: OVCAR-8 ovarian
SW-620 colon = tested on: SW-620 colon
NCI-H226 lung = tested on: NCI-H226 lung
HCT-15 colon = tested on: HCT-15 colon
UO-31 renal = tested on: UO-31 renal
MDA-MB-231 breast = tested on: MDA-MB-231 breast
CAKI-1 renal = tested on: CAKI-1 renal
SNB-75 CNS = tested on: SNB-75 CNS
HOP-92 NSCLC = tested on: HOP-92 NSCLC
COLO 205 colon = tested on: COLO 205 colon
M14 melanoma = tested on: M14 melanoma
HCT-116 colon = tested on: HCT-116 colon
NCI/ADR-RES ovarian = tested on: NCI/ADR-RES ovarian
TK-10 renal = tested on: TK-10 renal
KM12 colon = tested on: KM12 colon
SNB-19 CNS = tested on: SNB-19 CNS
SF-295 CNS = tested on: SF-295 CNS
MDA-MB-435 = tested on: MDA-MB-435
RPMI-8226 leukemia = tested on: RPMI-8226 leukemia
NCI-H460 lung = tested on: NCI-H460 lung
CCRF-CEM leukemia = tested on: CCRF-CEM leukemia
UACC-62 melanoma = tested on: UACC-62 melanoma
LOX IMVI melanoma = tested on: LOX IMVI melanoma
HOP-62 NSCLC = tested on: HOP-62 NSCLC
HL-60(TB) leukemia = tested on: HL-60(TB) leukemia
SK-MEL-2 melanoma = tested on: SK-MEL-2 melanoma
NCI-H522 lung = tested on: NCI-H522 lung
HS 578T breast = tested on: HS 578T breast
HCC-2998 colon = tested on: HCC-2998 colon
UACC-257 melanoma = tested on: UACC-257 melanoma
T-47D breast = tested on: T-47D breast
MALME-3M melanoma = tested on: MALME-3M melanoma
MCF7 breast = tested on: MCF7 breast
786-0 renal = tested on: 786-0 renal
K-562 leukemia = tested on: K-562 leukemia
SK-OV-3 ovarian = tested on: SK-OV-3 ovarian
MOLT-4 leukemia = tested on: MOLT-4 leukemia
SR leukemia = tested on: SR leukemia
BT-549 breast = tested on: BT-549 breast

`CSc1ccc(C(=C=C=C(c2ccc(SC)s2)c2ccc(SC)s2)c2ccc(SC)s2)s1` gave a TGI (SN12C renal) greater than 10 µM, a TGI (EKVX NSCLC) greater than 10 µM and a TGI (IGROV1 ovarian) greater than 10 µM. The TGI (NCI-H23 lung) was greater than 10 µM, the TGI (ACHN renal) was greater than 10 µM and the TGI (DU-145 prostate) was greater than 10 µM. It also gave a TGI (SF-268 CNS) greater than 10 µM, a TGI (OVCAR-4 ovarian) greater than 10 µM and a TGI (OVCAR-5 ovarian) greater than 10 µM. The TGI (SK-MEL-28 melanoma) was greater than 10 µM, the TGI (SK-MEL-5 melanoma) was greater than 10 µM and the TGI (A498 renal) was greater than 10 µM. For the same molecule, the TGI (RXF 393 renal) was greater than 10 µM, the TGI (SF-539 CNS) was greater than 10 µM and the TGI (HT29 colon) was greater than 10 µM. It also gave a TGI (MDA-N) greater than 10 µM, a TGI (A549 NSCLC) greater than 10 µM and a TGI (OVCAR-3 ovarian) greater than 10 µM. The TGI (U251 CNS) was greater than 10 µM, the TGI (PC-3 prostate) was greater than 10 µM and the TGI (OVCAR-8 ovarian) was greater than 10 µM. For the same molecule, the TGI (SW-620 colon) was greater than 10 µM, the TGI (NCI-H226 lung) was greater than 10 µM and the TGI (HCT-15 colon) was greater than 10 µM. For the same molecule, the TGI (UO-31 renal) was greater than 10 µM, the TGI (MDA-MB-231 breast) was greater than 10 µM and the TGI (CAKI-1 renal) was greater than 10 µM. It also gave a TGI (SNB-75 CNS) greater than 10 µM, a TGI (HOP-92 NSCLC) greater than 10 µM and a TGI (COLO 205 colon) greater than 10 µM. For the same molecule, the TGI (M14 melanoma) was greater than 10 µM, the TGI (HCT-116 colon) was greater than 10 µM and the TGI (NCI/ADR-RES ovarian) was greater than 10 µM. The TGI (TK-10 renal) was greater than 10 µM, the TGI (KM12 colon) was greater than 10 µM and the TGI (SNB-19 CNS) was greater than 10 µM. For the same molecule, the TGI (SF-295 CNS) was greater than 10 µM and the TGI (MDA-MB-435) was greater than 10 µM.
`Cc1cc(=O)[nH]c(-n2[nH]c(C)c(CCO)c2=O)n1` showed a TGI (RPMI-8226 leukemia) greater than 100 µM, a TGI (SN12C renal) greater than 100 µM and a TGI (NCI-H460 lung) greater than 100 µM. The TGI (EKVX NSCLC) was greater than 100 µM, the TGI (IGROV1 ovarian) was greater than 100 µM and the TGI (NCI-H23 lung) was greater than 100 µM. It also gave a TGI (CCRF-CEM leukemia) greater than 100 µM, a TGI (ACHN renal) greater than 100 µM and a TGI (DU-145 prostate) greater than 100 µM. The TGI (SF-268 CNS) was greater than 100 µM, the TGI (OVCAR-4 ovarian) was greater than 100 µM and the TGI (OVCAR-5 ovarian) was greater than 100 µM. It also gave a TGI (SK-MEL-28 melanoma) greater than 100 µM, a TGI (UACC-62 melanoma) greater than 100 µM and a TGI (SK-MEL-5 melanoma) greater than 100 µM. For the same molecule, the TGI (A498 renal) was greater than 100 µM, the TGI (RXF 393 renal) was greater than 100 µM and the TGI (LOX IMVI melanoma) was greater than 100 µM. It also gave a TGI (SF-539 CNS) greater than 100 µM, a TGI (HT29 colon) greater than 100 µM and a TGI (HOP-62 NSCLC) greater than 100 µM. For the same molecule, the TGI (MDA-N) was greater than 100 µM, the TGI (HL-60(TB) leukemia) was greater than 100 µM and the TGI (A549 NSCLC) was greater than 100 µM. It also gave a TGI (OVCAR-3 ovarian) greater than 100 µM, a TGI (U251 CNS) greater than 100 µM and a TGI (PC-3 prostate) greater than 100 µM. It also gave a TGI (OVCAR-8 ovarian) greater than 100 µM, a TGI (SW-620 colon) greater than 100 µM and a TGI (NCI-H226 lung) greater than 100 µM. For the same molecule, the TGI (SK-MEL-2 melanoma) was greater than 100 µM, the TGI (NCI-H522 lung) was greater than 100 µM and the TGI (HS 578T breast) was greater than 100 µM. The TGI (HCT-15 colon) was greater than 100 µM, the TGI (UO-31 renal) was greater than 100 µM and the TGI (MDA-MB-231 breast) was greater than 100 µM. For the same molecule, the TGI (HCC-2998 colon) was greater than 100 µM, the TGI (CAKI-1 renal) was greater than 100 µM and the TGI (UACC-257 melanoma) was greater than 100 µM. For the same molecule, the TGI (T-47D breast) was greater than 100 µM, the TGI (MALME-3M melanoma) was greater than 100 µM and the TGI (COLO 205 colon) was greater than 100 µM. The TGI (M14 melanoma) was greater than 100 µM, the TGI (HCT-116 colon) was greater than 100 µM and the TGI (MCF7 breast) was greater than 100 µM. The TGI (786-0 renal) was greater than 100 µM, the TGI (K-562 leukemia) was greater than 100 µM and the TGI (NCI/ADR-RES ovarian) was greater than 100 µM. It also gave a TGI (TK-10 renal) greater than 100 µM, a TGI (SK-OV-3 ovarian) greater than 100 µM and a TGI (KM12 colon) greater than 100 µM. It also gave a TGI (SNB-19 CNS) greater than 100 µM, a TGI (SF-295 CNS) greater than 100 µM and a TGI (MDA-MB-435) greater than 100 µM.
`CCc1n[nH]c(=O)n1/N=C/c1c(O)ccc2ccccc12` was tested, and the TGI (RPMI-8226 leukemia) was greater than 100 µM, the TGI (SN12C renal) was greater than 100 µM and the TGI (EKVX NSCLC) was greater than 100 µM. It also gave a TGI (IGROV1 ovarian) greater than 100 µM, a TGI (NCI-H23 lung) greater than 100 µM and a TGI (CCRF-CEM leukemia) greater than 100 µM. The TGI (ACHN renal) was greater than 100 µM, the TGI (DU-145 prostate) was greater than 100 µM and the TGI (SF-268 CNS) was greater than 100 µM. For the same molecule, the TGI (OVCAR-4 ovarian) was greater than 100 µM, the TGI (OVCAR-5 ovarian) was greater than 100 µM and the TGI (SK-MEL-28 melanoma) was greater than 100 µM. It also gave a TGI (UACC-62 melanoma) greater than 100 µM, a TGI (SK-MEL-5 melanoma) greater than 100 µM and a TGI (RXF 393 renal) greater than 100 µM. For the same molecule, the TGI (MOLT-4 leukemia) was greater than 100 µM, the TGI (LOX IMVI melanoma) was greater than 100 µM and the TGI (SF-539 CNS) was greater than 100 µM. The TGI (SR leukemia) was greater than 100 µM, the TGI (HOP-62 NSCLC) was greater than 100 µM and the TGI (MDA-N) was greater than 100 µM. For the same molecule, the TGI (A549 NSCLC) was greater than 100 µM, the TGI (OVCAR-3 ovarian) was greater than 100 µM and the TGI (U251 CNS) was greater than 100 µM. It also gave a TGI (PC-3 prostate) greater than 100 µM, a TGI (OVCAR-8 ovarian) greater than 100 µM and a TGI (SW-620 colon) greater than 100 µM. It also gave a TGI (SK-MEL-2 melanoma) greater than 100 µM, a TGI (NCI-H522 lung) greater than 100 µM and a TGI (HCT-15 colon) greater than 100 µM. The TGI (UO-31 renal) was greater than 100 µM, the TGI (MDA-MB-231 breast) was greater than 100 µM and the TGI (HCC-2998 colon) was greater than 100 µM. It also gave a TGI (UACC-257 melanoma) greater than 100 µM, a TGI (SNB-75 CNS) greater than 100 µM and a TGI (BT-549 breast) greater than 100 µM. The TGI (HOP-92 NSCLC) was greater than 100 µM, the TGI (COLO 205 colon) was greater than 100 µM and the TGI (M14 melanoma) was greater than 100 µM. The TGI (HCT-116 colon) was greater than 100 µM, the TGI (MCF7 breast) was greater than 100 µM and the TGI (786-0 renal) was greater than 100 µM. For the same molecule, the TGI (K-562 leukemia) was greater than 100 µM, the TGI (NCI/ADR-RES ovarian) was greater than 100 µM and the TGI (TK-10 renal) was greater than 100 µM. For the same molecule, the TGI (SK-OV-3 ovarian) was greater than 100 µM, the TGI (KM12 colon) was greater than 100 µM and the TGI (SNB-19 CNS) was greater than 100 µM. The TGI (SF-295 CNS) was greater than 100 µM and the TGI (MDA-MB-435) was greater than 100 µM.
